Source: patent publication US12533411B2, “Compositions comprising anti-CD38 antibodies and carfilzomib” (Sanofi-Aventis U.S. LLC, priority 2013, dated 2026)
Entries after “also recorded” stand apart in the source; their conditions may differ.

Tests used:
[1] = tested on: NCI-H929 multiple myeloma model; experiment: NCI-H929 subcutaneous multiple myeloma xenograft mouse model (Example 1); format: in vivo, Balb/c Scid mice; conditions: carfilzomib 2 mg/kg 2×/wk × 3 wk IV; for Activity: D69, hu38SB19 0.5 mg/kg 2×/wk × 2 wk IV
Source text: The subcutaneous multiple myeloma (MM) xenograft mouse models were established using NCI-H929 or RPMI-8226 cell lines. Specifically, 5-6 week old female Balb/c Scid mice were obtained from Jackson Lab. Mice were housed for 7-10 days prior to implantation. Mice were housed in a dedicated room in the UCSF Mt Zion Animal Barrier Facility. NCI-H929 and RPMI-8226 cells were obtained from the German Collection of Microorganisms and Cell Cultures, DSMZ, (Deutsche Sammlung von Mikroorganismen and Zellkulturen), and grown in sterile suspension culture in T225 flasks as follows: NCI-H929: RPMI1640+20% FBS+4 mM L−glutamine+1 mM sodium pyruvate+50 μM mercaptoethanol. RPMI-8226: RPMI1640+10% FBS+4 mM L-glutamine. At the time of implantation, mice were shaved on the right flank and shoulder region and anesthetized with ip avertin. MM cells suspended in serum free RPMI 1640 media diluted 1:1 with Matrigel (BD) at a concentration of 1×10^8 cells per ml were injected sc into the right flank in 100 μL volume (1×10^7 cells) using a 1 ml syringe and 25 g needle. Mice were monitored twice weekly for the appearance of tumors and once tumors were visible, measurements were collected twice weekly for body weight and tumor volume. Electronic balance and calipers were used and data was collected directly into a study management program (Study Director). When the mean tumor volume reached about 150-200 mm^3, the mice were distributed into treatment groups of 8-10 mice per groups and dosing was begun. […] Dose levels for use in combination studies are as follows: Data were collected using electronic balance and calipers using a study management application called StudyLog (Study Director). […] Antitumor activity was determined according to NCI standards based on the ratio of the median tumor volume change of the treated/median tumor volume change of the control×100 (% ΔT/ΔC). Low numerical values for ΔT/ΔC describe stronger anti-tumor activity. Anti-tumor activity is defined as T/C≤40% at minimum. ΔT/ΔC<10% is considered high anti-tumor activity.

[2] = tested on: RPMI-8226 xenograft models; experiment: RPMI-8226 subcutaneous multiple myeloma xenograft mouse model (Example 1); format: in vivo, Balb/c Scid mice; conditions: Day 41, carfilzomib 3 mg/kg qd×2 every wk×3 wk, hu38SB19 3 mg/kg BIW×2 wk
Source text: The subcutaneous multiple myeloma (MM) xenograft mouse models were established using NCI-H929 or RPMI-8226 cell lines. Specifically, 5-6 week old female Balb/c Scid mice were obtained from Jackson Lab. Mice were housed for 7-10 days prior to implantation. Mice were housed in a dedicated room in the UCSF Mt Zion Animal Barrier Facility. NCI-H929 and RPMI-8226 cells were obtained from the German Collection of Microorganisms and Cell Cultures, DSMZ, (Deutsche Sammlung von Mikroorganismen and Zellkulturen), and grown in sterile suspension culture in T225 flasks as follows: NCI-H929: RPMI1640+20% FBS+4 mM L−glutamine+1 mM sodium pyruvate+50 μM mercaptoethanol. RPMI-8226: RPMI1640+10% FBS+4 mM L-glutamine.
At the time of implantation, mice were shaved on the right flank and shoulder region and anesthetized with ip avertin. MM cells suspended in serum free RPMI 1640 media diluted 1:1 with Matrigel (BD) at a concentration of 1×10^8 cells per ml were injected sc into the right flank in 100 μL volume (1×10^7 cells) using a 1 ml syringe and 25 g needle. Mice were monitored twice weekly for the appearance of tumors and once tumors were visible, measurements were collected twice weekly for body weight and tumor volume. Electronic balance and calipers were used and data was collected directly into a study management program (Study Director). […]

[3] = tested on: NCI-H929 xenografts; experiment: NCI-H929 hind-flank xenograft tumor growth (Example 3, FIGS. 12-13); format: in vivo, Balb/c Scid mice; conditions: for tumor growth inhibition, single agent: single-agent administration, NCI-H929 hind-flank model (FIG. 12)
Experimental: Carfilzomib (PR-171) was obtained from Chemie Tek (CT-CARP 98). Carfilzomib was formulated in an aqueous solution of 10% (w/v) sulfobutylether-h-cyclodextrin (Cydex) and 10 mmol/L sodium citrate (pH 3.5), 2 mg/ml stock prepared and frozen at −80° C., diluted daily with vehicle before injection. Carfilzomib was administered weekly qd×2×3 wk (iv).
Test Animals: 5-6 week old female Balb/c Scid mice were obtained from Jackson Lab. Mice were housed for 7-10 days prior to implantation of multiple myeloma (MM) cell lines. Mice were housed in a dedicated room in the UCSF Mt. Zion Animal Barrier Facility.
Xenograft Model: At the time of implantation, mice were shaved on the right flank and shoulder. MM cells were suspended in serum free RPMI 1640 media diluted 1:1 with Matrigel (BD) at a concentration of 1×10^8 cells per ml were injected sc into the right flank in 100 ul volume (1×10^7 cells) using a 1 ml syringe and 25 g needle. Mice were monitored twice weekly for the appearance of tumors and once tumors were visible, measurements were collected twice weekly for body weight and tumor volume. Electronic balance and calipers were used and data was collected directly into a study management program (Study Director). When the mean tumor volume reached approximately 150-200 mm^3, mice were distributed into treatment groups of 8-10 mice per group and dosing was initiated.

[4] = tested on: tumor cells; conditions: reported in the literature; cited from earlier work
[5] = tested on: tumor cells; experiment: Direct pro-apoptotic activity on tumor cells without cross-linking; format: cell-based; conditions: preclinical studies

Question: Which Activity [1] does the source give for CC(C)C[C@H](NC(=O)[C@H](CCc1ccccc1)NC(=O)CN1CCOCC1)C(=O)N[C@@H](Cc1ccccc1)C(=O)N[C@@H](CC(C)C)C(=O)[C@@]1(C)CO1 [Carfilzomib, (S)-4-Methyl-N-((S)-1-(((S)-4-methyl-1-((R)-2-methyloxiran-2-yl)-1-oxopentan-2-yl)amino)-1-oxo-3-phenylpropan-2-yl)-2-((S)-2-(2-morpholinoacetamido)-4-phenylbutanamido)pentanamide] here?
Answer: Inactive

Question: And the Activity ([1]; listed as carfilzomib)?
Answer: inactive

Question: What about the “% ΔT/ΔC (D69)” value ([1]; hu38SB19 0.5 mg/kg 2×/wk × 2 wk IV) of the same molecule?
Answer: 68%

Question: What about the complete regressions [2] of the same molecule?
Answer: 0/10

Question: What about the “tumor growth inhibition, single agent” value [3] of the same molecule?
Answer: not robustly sensitive to single-agent therapy

Question: With “Daratumumab: CD38 antibody reported to induce apoptosis only after cross-linking with a secondary antibody” as the molecule, how does the induction of apoptosis [4] read?
Answer: able to induce apoptosis only after cross-linking with a secondary antibody

Question: What does the source list for “hu38SB19: humanized anti-CD38 antibody; VH SEQ ID NO: 66, VL SEQ ID NO: 62 or 64; humanized version of 38SB19”?
Answer: Activity [1]: Inactive; complete regressions [2]: 2/10; elimination of palpable tumors ([3]; hu38SB19 as sole active ingredient, four cumulative doses twice weekly at 3 mg/kg (FIG. 12)): eliminate palpable tumors in all mice; tumor growth inhibition, single agent [3]: dose-dependent inhibition of tumor growth; also recorded: dose-dependent anti-tumor effects; direct pro-apoptotic activity [5]: potent direct pro-apoptotic activity
